How the values were obtained:
female prairie voles = assay: Partner preference test immediately after 6 hour cohabitation (experiment 1); type: in vivo, prairie vole; conditions: intraperitoneal, tested immediately after cohabitation, FIG. 1
Source text: Social bonding in prairie voles is a complex social cognitive process, which involves the synthesis of social motivation, social information process and social learning. Bonding can be efficiently assayed in the laboratory using a partner preference paradigm (Ahern, 2009). The formation of a partner preference in female prairie voles is dependent on OT (Williams, 1994). In the absence of mating, 24 hrs of cohabitation is typically needed for the development of a partner preference. However, OT administration accelerates partner preference formation to 6 hrs or less. […] Melanotan I (MTI) and Melanotan II (MTII), synthetic α-MSH analogues, which act on melanocortin ¾ receptors, and busprione (BUS), a 5-HT1a receptor partial agonist, We administered to female prairie voles and assessed partner preference. […]
Female prairie voles were injected intraperitoneally with either Melanotan II (1.10 mg/kg; Sigma Aldrich, St. Louis, Mo.), buspirone (8, 30 mg/kg; Sigma Aldrich, St. Louis, Mo.) or a saline control in a dissolved in a volume of 0.1 ml 0.1% sterile saline. […] The pairs were cohabitated for six hours and video recorded to monitor for sexual behavior. […] The videos were analyzed afterwards for mating attempts and animals that mated were excluded from the study. […] The time the subject spent in side by side contact with no joint motion was scored using the CleverSys Behavioral Analysis System. […]

female voles = conditions: OT administered; without mating 24 hrs or more needed; cited from earlier work

Compound | time spent with the partner male vs. the stranger male (partner preference) (female prairie voles; high dose) | time spent with the partner male vs. the stranger male (partner preference) (female prairie voles; low dose) | cohabitation period to partner preference formation (female voles) [h]
O=C1CC2(CCCC2)CC(=O)N1CCCCN1CCN(c2ncccn2)CC1 [BUS, buspirone] | failed to spend significantly more time with either stimulus animal | spent significantly more time with the partner male vs. the stranger male | 
CC[C@H](C)[C@@H]1NC(=O)[C@H](Cc2ccc(O)cc2)NC(=O)[C@@H](N)CSSC[C@@H](C(=O)N2CCC[C@H]2C(=O)N[C@@H](CC(C)C)C(=O)NCC(N)=O)NC(=O)[C@H](CC(N)=O)NC(=O)[C@H](CCC(N)=O)NC1=O [OT, Oxytocin] |  |  | ≤ 6

— patent US10058584B2, “Methods of improving behavioral therapies” (Emory University, priority 2010, dated 2018)
